Paper PMC10018501 (ACS Omega, 2023)
“And” between values parts separate entries of the source, which are not always exact repeats. Equal values may be shown once. Read-outs that look alike come from different tables or passages of the source.

How the values were obtained:
[1] = target: hAChE (Homo sapiens, UniProt P22303); assay: In vitro hAChE inhibition assay; format: biochemical; conditions: for selectivity index hBChE/hAChE: IC50 of hBChE/IC50 of hAChE
[2] = target: hBChE (Equus caballus, UniProt P81908); assay: In vitro hBChE inhibition assay; format: biochemical, human
Sequence of hBChE (P81908 whole entry): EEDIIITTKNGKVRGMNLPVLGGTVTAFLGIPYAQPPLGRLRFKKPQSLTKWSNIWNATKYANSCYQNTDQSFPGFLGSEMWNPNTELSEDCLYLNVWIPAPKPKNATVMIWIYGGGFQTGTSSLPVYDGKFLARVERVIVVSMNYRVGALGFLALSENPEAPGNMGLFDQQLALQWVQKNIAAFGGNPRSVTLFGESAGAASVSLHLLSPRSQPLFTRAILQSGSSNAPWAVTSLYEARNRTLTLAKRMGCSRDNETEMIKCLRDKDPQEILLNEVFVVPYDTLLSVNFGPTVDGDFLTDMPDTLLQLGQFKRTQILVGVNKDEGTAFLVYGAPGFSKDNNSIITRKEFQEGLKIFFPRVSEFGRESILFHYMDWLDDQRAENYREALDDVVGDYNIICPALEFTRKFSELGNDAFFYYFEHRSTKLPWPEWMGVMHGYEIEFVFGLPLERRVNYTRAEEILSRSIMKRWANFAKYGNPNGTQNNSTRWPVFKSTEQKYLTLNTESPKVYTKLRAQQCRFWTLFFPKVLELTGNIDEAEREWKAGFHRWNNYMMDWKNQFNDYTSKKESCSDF

[3] = target: hBACE-1 (Homo sapiens, UniProt P56817); assay: biochemical
Sequence of hBACE-1 (P56817 46-501): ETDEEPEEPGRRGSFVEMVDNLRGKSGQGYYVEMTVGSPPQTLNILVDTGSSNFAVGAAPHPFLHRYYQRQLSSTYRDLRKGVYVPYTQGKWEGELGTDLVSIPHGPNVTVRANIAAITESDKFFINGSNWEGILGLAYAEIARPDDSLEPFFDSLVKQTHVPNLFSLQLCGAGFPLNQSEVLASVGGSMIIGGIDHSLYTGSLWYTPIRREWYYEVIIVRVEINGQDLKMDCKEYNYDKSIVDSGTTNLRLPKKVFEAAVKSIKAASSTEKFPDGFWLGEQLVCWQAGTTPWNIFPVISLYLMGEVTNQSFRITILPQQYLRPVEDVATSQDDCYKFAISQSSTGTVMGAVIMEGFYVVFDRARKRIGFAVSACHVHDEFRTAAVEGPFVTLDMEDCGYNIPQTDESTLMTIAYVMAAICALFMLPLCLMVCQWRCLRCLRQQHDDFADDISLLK

[4] = target: PAS-AChE (hAChE-PAS region) (Homo sapiens, UniProt P22303); assay: Propidium iodide displacement assay; format: binding
Sequence of PAS-AChE (hAChE-PAS region) (P22303 32-617 isoform P22303-2 limits assumed): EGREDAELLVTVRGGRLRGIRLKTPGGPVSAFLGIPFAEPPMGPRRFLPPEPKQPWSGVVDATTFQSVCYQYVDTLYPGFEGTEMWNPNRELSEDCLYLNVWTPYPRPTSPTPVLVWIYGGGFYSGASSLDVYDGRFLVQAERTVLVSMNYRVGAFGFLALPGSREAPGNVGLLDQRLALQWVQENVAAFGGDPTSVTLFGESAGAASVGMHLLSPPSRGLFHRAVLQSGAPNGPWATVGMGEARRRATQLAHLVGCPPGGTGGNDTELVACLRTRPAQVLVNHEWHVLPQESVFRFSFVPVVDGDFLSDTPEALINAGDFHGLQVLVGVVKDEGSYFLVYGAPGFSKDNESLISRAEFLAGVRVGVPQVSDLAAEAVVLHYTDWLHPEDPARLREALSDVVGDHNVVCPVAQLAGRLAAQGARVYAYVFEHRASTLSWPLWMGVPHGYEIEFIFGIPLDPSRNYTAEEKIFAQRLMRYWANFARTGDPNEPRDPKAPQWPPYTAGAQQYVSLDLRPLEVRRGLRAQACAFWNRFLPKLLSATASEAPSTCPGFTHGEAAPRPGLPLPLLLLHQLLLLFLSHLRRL

[5] = tested on: differentiated SH-SY5Y cells; assay: Neurotoxicity estimation; format: cell-based; conditions: 10, 20, 40 and 80 μM, 24 h
[6] = tested on: nondifferentiated SH-SY5Y cells; assay: Neuroprotective estimation; format: cell-based; conditions: Homo sapiens, 24 h, read-out: cell viability
[7] = target: Aβ1–42 (Homo sapiens, UniProt P05067); assay: Self-induced Aβ aggregation inhibition thioflavin T assay; format: biochemical; conditions: compound 5, 10 and 20 μM; Aβ 10 μM
Sequence of Aβ1–42 (P05067 672-713): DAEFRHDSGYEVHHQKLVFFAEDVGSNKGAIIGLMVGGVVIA

[8] = target: Aβ1–42 with hAChE (Homo sapiens, UniProt P22303); assay: hAChE-induced Aβ aggregation inhibition thioflavin T assay; format: biochemical; conditions: compound 5, 10 and 20 μM; Aβ 10 μM
Sequence of Aβ1–42 with hAChE (P22303 32-588 isoform P22303-2): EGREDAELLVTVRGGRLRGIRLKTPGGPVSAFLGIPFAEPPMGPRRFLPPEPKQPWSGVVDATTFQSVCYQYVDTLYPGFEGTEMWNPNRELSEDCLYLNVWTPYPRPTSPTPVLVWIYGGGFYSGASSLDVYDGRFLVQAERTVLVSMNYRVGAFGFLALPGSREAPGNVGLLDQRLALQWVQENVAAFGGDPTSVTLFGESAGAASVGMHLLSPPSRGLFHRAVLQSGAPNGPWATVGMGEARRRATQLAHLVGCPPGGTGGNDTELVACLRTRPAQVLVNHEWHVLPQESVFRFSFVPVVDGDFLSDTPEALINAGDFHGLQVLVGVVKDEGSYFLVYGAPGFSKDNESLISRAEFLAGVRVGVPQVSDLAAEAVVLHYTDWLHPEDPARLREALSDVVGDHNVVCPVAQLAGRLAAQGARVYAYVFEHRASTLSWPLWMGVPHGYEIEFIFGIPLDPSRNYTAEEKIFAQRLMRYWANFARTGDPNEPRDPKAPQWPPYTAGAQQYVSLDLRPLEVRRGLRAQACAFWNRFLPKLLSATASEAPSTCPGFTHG

[9] = n = 3, mean ± SEM
[10] = in vitro; conditions: PAMPA, pH 7.4
[11] = tested on: scopolamine-induced rat model; assay: Scopolamine-induced Y-maze test; format: in vivo, Wistar rats; conditions: SD-6 2.5, 5, 10 mg/kg p.o.; donepezil 5 mg/kg p.o.; 7 days; vs scopolamine group
[12] = tested on: ICV Aβ1–42-induced rat model; assay: Aβ-induced Morris water maze test; conditions: SD-6 10 mg/kg, donepezil 5 mg/kg, orally 9 days; vs Aβ group
[13] = hAChE inhibitory activity (good/moderate/poor), class in words

Sequence of hAChE (P22303 32-617 isoform P22303-2 limits assumed): as the sequence (P22303 32-617 isoform P22303-2 limits assumed) above

S=c1oc(-c2ccc(Cl)cc2)nn1CN1CCN(Cc2ccccc2)CC1 [SD-1, 3-((4-Benzylpiperazin-1-yl)methyl)-5-(4-chlorophenyl)-1,3,4-oxadiazole-2(3H)-thione]
IC50 ([1]; IC50 ± SEM hAChE, n = 3): 1260 ± 19 nM
IC50 [1, 13]: 1000 to 2000 nM
IC50 [2]: > 10000 nM
IC50 ([3]; IC50 ± SEM hBACE-1, n = 3): 943 ± 18 nM

O=[N+]([O-])c1ccc(-c2nn(CN3CCN(Cc4ccccc4)CC3)c(=S)o2)cc1 [SD-2, 3-((4-Benzylpiperazin-1-yl)methyl)-5-(4-nitrophenyl)-1,3,4-oxadiazole-2(3H)-thione]
IC50 ([1]; IC50 ± SEM hAChE, n = 3): 1107 ± 8 nM
IC50 [1, 13]: 1000 to 2000 nM
IC50 [2]: > 10000 nM
IC50 ([3]; IC50 ± SEM hBACE-1, n = 3): 811 ± 23 nM

FC(F)(F)Oc1ccc(-c2nn(CN3CCN(Cc4ccccc4)CC3)c(=S)o2)cc1 [SD-3, 3-((4-Benzylpiperazin-1-yl)methyl)-5-(4-(trifluoromethoxy)phenyl)-1,3,4-oxadiazole-2(3H)-thione]
IC50 ([1]; IC50 ± SEM hAChE, n = 3): 1335 ± 12 nM
IC50 [1, 13]: 1000 to 2000 nM
IC50 [2]: > 10000 nM
IC50 [3]: 1000 to 2500 nM
IC50 ([3]; IC50 ± SEM hBACE-1, n = 3): 1110 ± 16 nM

N#Cc1cccc(-c2nn(CN3CCN(Cc4ccccc4)CC3)c(=S)o2)c1 [SD-4, 3-(4-((4-Benzylpiperazin-1-yl)methyl)-5-thioxo-4,5-dihydro-1,3,4-oxadiazol-2-yl)benzonitrile]
selectivity index hBChE/hAChE [1]: 1.534
IC50 ([1]; IC50 ± SEM hAChE, n = 3): 1077 ± 9 nM
IC50 [1, 13]: < 1000 nM
IC50 [2]: 1650 ± 19 nM
IC50 ([3]; IC50 ± SEM hBACE-1, n = 3): 651 ± 14 nM
PAS-AChE propidium iodide displacement (%) ([4]; [I] = 10 μM): 24.6% and 24.661 ± 1.421%
PAS-AChE propidium iodide displacement (%) ([4]; [I] = 50 μM): 55.1% and 55.157 ± 1.247%
neurotoxicity (MTT, cell population and morphology) [5]: non-neurotoxic
viability at 5 µM [6]: 59.1%
viability at 10 µM [6]: 71.6%
viability at 20 µM [6]: 82.5%
% Aβ aggregation inhibition, self-induced [7]: 20–61%
% Aβ aggregation inhibition, hAChE-induced [8]: 38–79%
Pe(exp) PAMPA–BBB [9]: 6.127 10^–6 cm/s
Papp [10]: 6.127 ± 0.019 ×10⁻⁶ cm/s

O=[N+]([O-])c1ccccc1-c1nn(CN2CCN(Cc3ccccc3)CC2)c(=S)o1 [SD-5, 3-((4-Benzylpiperazin-1-yl)methyl)-5-(2-nitrophenyl)-1,3,4-oxadiazole-2(3H)-thione]
IC50 ([1]; IC50 ± SEM hAChE, n = 3): 1890 ± 31 nM
hAChE inhibitory activity (good/moderate/poor) ([1]; class in words): moderate to poor
IC50 [2]: > 10000 nM
IC50 [3]: 1000 to 2500 nM
IC50 ([3]; IC50 ± SEM hBACE-1, n = 3): 1170 ± 21 nM

S=c1oc(-c2cccc(Cl)c2)nn1CN1CCN(Cc2ccccc2)CC1 [SD-7, 3-((4-Benzylpiperazin-1-yl)methyl)-5-(3-chlorophenyl)-1,3,4-oxadiazole-2(3H)-thione]
IC50 ([1]; IC50 ± SEM hAChE, n = 3): 1420 ± 22 nM
IC50 [1, 13]: < 1000 nM
IC50 [2]: > 10000 nM
IC50 ([3]; IC50 ± SEM hBACE-1, n = 3): 885 ± 13 nM

FC(F)(F)c1ccc(-c2nn(CN3CCN(Cc4ccccc4)CC3)c(=S)o2)cc1 [SD-8, 3-((4-Benzylpiperazin-1-yl)methyl)-5-(4-(trifluoromethyl)phenyl)-1,3,4-oxadiazole-2(3H)-thione]
selectivity index hBChE/hAChE [1]: 1.835
IC50 ([1]; IC50 ± SEM hAChE, n = 3): 1320 ± 18 nM
IC50 [1, 13]: 1000 to 2000 nM
IC50 [2]: 2420 ± 41 nM
IC50 ([3]; IC50 ± SEM hBACE-1, n = 3): 701 ± 19 nM
PAS-AChE propidium iodide displacement (%) ([4]; [I] = 10 μM): 21.446 ± 1.147%
PAS-AChE propidium iodide displacement (%) ([4]; [I] = 10 μM, listed as SD-08): 21.4%
PAS-AChE propidium iodide displacement (%) ([4]; [I] = 50 μM): 41.709 ± 1.271%
PAS-AChE propidium iodide displacement (%) ([4]; [I] = 50 μM, listed as SD-08): 41.7%
Pe(exp) PAMPA–BBB [9]: 5.019 10^–6 cm/s
Papp [10]: 5.019 ± 0.033 ×10⁻⁶ cm/s

S=c1oc(-c2ccc(Cl)cc2Cl)nn1CN1CCN(Cc2ccccc2)CC1 [SD-9, 3-((4-Benzylpiperazin-1-yl)methyl)-5-(2,4-dichlorophenyl)-1,3,4-oxadiazole-2(3H)-thione]
IC50 ([1]; IC50 ± SEM hAChE, n = 3): 2110 ± 37 nM
hAChE inhibitory activity (good/moderate/poor) ([1]; class in words): moderate to poor
IC50 [2]: > 10000 nM
IC50 [3]: 1000 to 2500 nM
IC50 ([3]; IC50 ± SEM hBACE-1, n = 3): 1410 ± 31 nM

Oc1ccc(-c2nn(CN3CCN(Cc4ccccc4)CC3)c(=S)o2)cc1 [SD-10, 3-((4-Benzylpiperazin-1-yl)methyl)-5-(4-hydroxyphenyl)-1,3,4-oxadiazole-2(3H)-thione]
IC50 ([1]; IC50 ± SEM hAChE, n = 3): 1220 ± 13 nM
IC50 [1, 13]: 1000 to 2000 nM
IC50 [2]: > 10000 nM
IC50 ([3]; IC50 ± SEM hBACE-1, n = 3): > 5000 nM

Nc1ccc(-c2nn(CN3CCN(Cc4ccccc4)CC3)c(=S)o2)cc1 [SD-11, 5-(4-Aminophenyl)-3-((4-benzylpiperazin-1-yl)methyl)-1,3,4-oxadiazole-2(3H)-thione]
IC50 ([1]; IC50 ± SEM hAChE, n = 3): 1220 ± 27 nM
IC50 [1, 13]: 1000 to 2000 nM
IC50 [2]: > 10000 nM
IC50 ([3]; IC50 ± SEM hBACE-1, n = 3): > 5000 nM

COc1cccc(-c2nn(CN3CCN(Cc4ccccc4)CC3)c(=S)o2)c1 [SD-12, 3-((4-Benzylpiperazin-1-yl)methyl)-5-(3-methoxyphenyl)-1,3,4-oxadiazole-2(3H)-thione]
IC50 ([1]; IC50 ± SEM hAChE, n = 3): 1940 ± 24 nM
IC50 [1, 13]: 1000 to 2000 nM
IC50 [2]: > 10000 nM
IC50 [3]: 1000 to 2500 nM
IC50 ([3]; IC50 ± SEM hBACE-1, n = 3): 1210 ± 16 nM

COc1ccc(-c2nn(CN3CCN(Cc4ccccc4)CC3)c(=S)o2)cc1 [SD-13, 3-((4-Benzylpiperazin-1-yl)methyl)-5-(4-methoxyphenyl)-1,3,4-oxadiazole-2(3H)-thione]
IC50 ([1]; IC50 ± SEM hAChE, n = 3): 1530 ± 28 nM
IC50 [1, 13]: 1000 to 2000 nM
IC50 [2]: > 10000 nM
IC50 [3]: 1000 to 2500 nM
IC50 ([3]; IC50 ± SEM hBACE-1, n = 3): 1358 ± 12 nM

O=[N+]([O-])c1cc(-c2nn(CN3CCN(Cc4ccccc4)CC3)c(=S)o2)ccc1Cl [SD-14, 3-((4-Benzylpiperazin-1-yl)methyl)-5-(4-chloro-3-nitrophenyl)-1,3,4-oxadiazole-2(3H)-thione]
selectivity index hBChE/hAChE [1]: 1.710
IC50 ([1]; IC50 ± SEM hAChE, n = 3): 1140 ± 18 nM
IC50 [1, 13]: 1000 to 2000 nM
IC50 [2]: 1940 ± 33 nM
IC50 ([3]; IC50 ± SEM hBACE-1, n = 3): 806 ± 11 nM
PAS-AChE propidium iodide displacement (%) ([4]; [I] = 10 μM): 19.7% and 19.773 ± 1.216%
PAS-AChE propidium iodide displacement (%) ([4]; [I] = 50 μM): 36.8% and 36.841 ± 1.069%
Pe(exp) PAMPA–BBB [9]: 4.848 10^–6 cm/s
Papp [10]: 4.858 ± 0.016 ×10⁻⁶ cm/s

O=[N+]([O-])c1ccc(-c2nn(CN3CCN(Cc4ccccc4)CC3)c(=S)o2)c([N+](=O)[O-])c1 [SD-15, 3-((4-Benzylpiperazin-1-yl)methyl)-5-(2,4-dinitrophenyl)-1,3,4-oxadiazole-2(3H)-thione]
IC50 ([1]; IC50 ± SEM hAChE, n = 3): 1420 ± 23 nM
hAChE inhibitory activity (good/moderate/poor) ([1]; class in words): moderate to poor
IC50 [2]: > 10000 nM
IC50 [3]: 1000 to 2500 nM
IC50 ([3]; IC50 ± SEM hBACE-1, n = 3): 1450 ± 22 nM

S=c1oc(-c2ccccc2Br)nn1CN1CCN(Cc2ccccc2)CC1 [SD-16, 3-((4-Benzylpiperazin-1-yl)methyl)-5-(2-bromophenyl)-1,3,4-oxadiazole-2(3H)-thione]
IC50 ([1]; IC50 ± SEM hAChE, n = 3): 2410 ± 27 nM
hAChE inhibitory activity (good/moderate/poor) ([1]; class in words): moderate to poor
IC50 [2]: > 10000 nM
IC50 [3]: 1000 to 2500 nM
IC50 ([3]; IC50 ± SEM hBACE-1, n = 3): 1800 ± 29 nM

Oc1ccc(-c2nn(CN3CCN(Cc4ccccc4)CC3)c(=S)o2)c(O)c1 [SD-17, 3-((4-Benzylpiperazin-1-yl)methyl)-5-(2,4-dihydroxyphenyl)-1,3,4-oxadiazole-2(3H)-thione]
IC50 ([1]; IC50 ± SEM hAChE, n = 3): 1792 ± 15 nM
hAChE inhibitory activity (good/moderate/poor) ([1]; class in words): moderate to poor
IC50 [2]: > 10000 nM
IC50 [3]: 1000 to 2500 nM
IC50 ([3]; IC50 ± SEM hBACE-1, n = 3): 2150 ± 34 nM

COc1cc2c(cc1OC)C(=O)C(CC1CCN(Cc3ccccc3)CC1)C2 (stereo not shown) [donepezil, reference compound]
% Aβ aggregation inhibition, self-induced [7]: 21–37%
% spontaneous alterations [11]: significant (^b,c,dp < 0.001) increase
escape latency time (ELT) [12]: maximum decline in ELT
time spent in the platform zone [12]: significantly (^bp < 0.001) higher
total number of entries to the platform zone [12]: significantly (^bp < 0.001) different from the Aβ-treated animal group
